Assay results reported in PubChem BioAssay (NCI).
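A five-concentration, 48-hour dose response in 96-well plates underlies each endpoint, interpolated linearly between surrounding concentrations. GI50 = concentration required for 50% inhibition of growth. The concentration for full growth arrest is given as TGI.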

Assays:
Assay in all cases: NCI anticancer screen, dose series, 48 h
RPMI-8226 leukemia = tested on: RPMI-8226 leukemia
SF-295 CNS = tested on: SF-295 CNS
A498 renal = tested on: A498 renal
HOP-92 NSCLC = tested on: HOP-92 NSCLC
MOLT-4 leukemia = tested on: MOLT-4 leukemia
HCT-15 colon = tested on: HCT-15 colon
T-47D breast = tested on: T-47D breast
HT29 colon = tested on: HT29 colon
OVCAR-4 ovarian = tested on: OVCAR-4 ovarian
SK-MEL-5 melanoma = tested on: SK-MEL-5 melanoma

| SMILES | GI50 (RPMI-8226 leukemia) | TGI (RPMI-8226 leukemia) | GI50 (SF-295 CNS) | TGI (SF-295 CNS) | GI50 (A498 renal) | TGI (A498 renal) | GI50 (HOP-92 NSCLC) | TGI (HOP-92 NSCLC) | GI50 (MOLT-4 leukemia) | TGI (MOLT-4 leukemia) | GI50 (HCT-15 colon) | TGI (HCT-15 colon) | GI50 (T-47D breast) | TGI (T-47D breast) | GI50 (HT29 colon) | TGI (HT29 colon) | GI50 (OVCAR-4 ovarian) | TGI (OVCAR-4 ovarian) | GI50 (SK-MEL-5 melanoma) | TGI (SK-MEL-5 melanoma) |
| --- | --- | --- | --- | --- | --- | --- | --- | --- | --- | --- | --- | --- | --- | --- | --- | --- | --- | --- | --- | --- |
| CCC(CO)Nc1nc(NCc2ccccc2O)c2ncn(C(C)C)c2n1 (stereo not drawn) | 4.41 µM | 20.7 µM | 2.95 µM | 8.03 µM | 3.66 µM | 18 µM | 4.97 µM | 26.2 µM | 2.91 µM | 12.9 µM | 2.25 µM | > 100 µM | 5.07 µM | 32.8 µM | 3.67 µM | 60.1 µM | 5.42 µM | 33.6 µM | 2.54 µM | 11.9 µM |
| Cn1c(/C=C(\C#N)c2ccccc2)nc2c(N3CCOCC3)nc(Cl)nc21 | 0.254 µM | 0.804 µM | 1.98 µM | 4.32 µM | 1.51 µM | 2.87 µM | 0.405 µM | 2.06 µM | 0.669 µM | 3.12 µM | 0.233 µM | 0.641 µM | 1.23 µM | 3.75 µM | 0.386 µM | 1.47 µM | 1.13 µM | 2.5 µM | 1.64 µM | 3.01 µM |
| COC1CC2CCC(C)C(O)(O2)C(=O)C(=O)N2CCCCC2C(=O)OC(C(C)CC2CCC(O)C(OC)C2)CC(=O)C(C)C=C(C)C(O)C(OC)C(=O)C(C)CC(C)/C=C/C=C/C=C1C (stereo not drawn) | 0.0903 µM | 19.3 µM | < 0.005 µM | 7.76 µM | < 0.005 µM | 6.86 µM | 0.0107 µM | 7.48 µM | 0.0787 µM | 13.9 µM | 0.0813 µM | 14.7 µM | < 0.005 µM | 20.9 µM |  | 10.8 µM | < 0.005 µM | 10.5 µM |  | 9.24 µM |
| Cc1c(-c2c(-c3ccc(F)o3)sc3ncnc(O[C@H](Cc4ccccc4OCc4ccnn4CC(F)(F)F)C(=O)O)c23)ccc(OCCN2CCN(C)CC2)c1Cl | < 0.0147 µM | 0.261 µM | 3.55 µM | 7.55 µM | 3.03 µM | 9.6 µM | 4.57 µM | 9.7 µM | 0.108 µM | 4.71 µM | 6.49 µM | 20.1 µM | 5.14 µM | 16.3 µM | 4.54 µM | 9.41 µM | 4.86 µM | 17.8 µM | 3.13 µM | 6.25 µM |
| C/C(=N/Nc1nc2ccccc2n1C)c1ccccn1 | 0.0398 µM | 15.3 µM | 0.28 µM | 4.97 µM | 0.123 µM | 0.81 µM | 0.261 µM | 20 µM | 0.0226 µM | > 39.1 µM | 0.0171 µM | 27.9 µM | < 0.0144 µM | 11.6 µM | 0.044 µM | 24.4 µM | 0.0292 µM | 11.8 µM | 0.162 µM | 3.96 µM |
| O=C1NC(O)C(c2c[nH]c3ccccc23)=C1c1c[nH]c2ccccc12 (stereo not drawn) | > 25 µM | > 25 µM | > 25 µM | > 25 µM | > 25 µM | > 25 µM | 4.42 µM | > 25 µM | > 25 µM | > 25 µM | 18.4 µM | > 25 µM | > 25 µM | > 25 µM | > 25 µM | > 25 µM | > 25 µM | > 25 µM | > 25 µM | > 25 µM |
| CCn1c(CN2CCN(Cc3ccccc3)CC2)nc2cc(NC(=O)c3cccs3)ccc21 | 15.8 µM | 46.1 µM | 16.7 µM | 34.7 µM | 6.05 µM | 29.6 µM | 12.3 µM | 40.3 µM | 13.2 µM | 37.9 µM | 14.1 µM | 51.6 µM | 6.8 µM | 33.8 µM | 16.8 µM | 47.3 µM | 16.4 µM | 86.4 µM | 11.5 µM | 24.1 µM |
